Target: BTK (Homo sapiens (Human), UniProt Q06187)
Assay: Btk kinase assay (HTRF)
Assay type: biochemical
Details: [ATP]=80 μM, BTK=3.4 nM; read-out: BTK Inhibition
Summary of the method: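 BTK (3.4 nM) incubated 1 h with inhibitor, 80 μM ATP and 1 μM peptide substrate in 50 mM HEPES pH 7.0 with BSA and orthovanadate. Reaction stopped with EDTA plus Eu-antibody/XL665; HTRF 665/615 ratio read after 1 h, IC50 calculated relative to no-inhibitor and no-enzyme controls.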

Chain of BTK (Q06187 whole entry, species assumed): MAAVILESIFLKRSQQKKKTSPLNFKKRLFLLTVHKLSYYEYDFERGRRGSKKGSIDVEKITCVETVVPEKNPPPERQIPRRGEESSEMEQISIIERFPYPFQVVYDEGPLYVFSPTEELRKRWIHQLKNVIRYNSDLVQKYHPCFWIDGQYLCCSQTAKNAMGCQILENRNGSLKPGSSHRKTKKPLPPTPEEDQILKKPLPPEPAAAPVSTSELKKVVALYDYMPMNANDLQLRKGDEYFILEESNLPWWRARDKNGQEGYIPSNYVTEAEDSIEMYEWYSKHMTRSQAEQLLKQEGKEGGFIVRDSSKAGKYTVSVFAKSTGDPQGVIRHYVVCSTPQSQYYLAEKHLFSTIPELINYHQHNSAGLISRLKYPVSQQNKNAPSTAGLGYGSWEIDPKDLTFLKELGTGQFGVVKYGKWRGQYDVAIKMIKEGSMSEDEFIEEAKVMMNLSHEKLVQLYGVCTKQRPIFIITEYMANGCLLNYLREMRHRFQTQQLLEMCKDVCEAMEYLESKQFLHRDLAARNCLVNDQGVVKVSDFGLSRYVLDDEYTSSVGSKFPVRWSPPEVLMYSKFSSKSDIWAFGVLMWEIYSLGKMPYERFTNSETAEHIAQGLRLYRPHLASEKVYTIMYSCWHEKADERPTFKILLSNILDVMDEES

| SMILES | IC50 [nM] |
| --- | --- |
| C=CC(=O)Nc1cccc(-n2c(=O)n(-c3ccc(Oc4ccccc4)c(C)c3)c3cnccc32)c1 [Example 27, N-(3-(3-(3-methyl-4-phenoxyphenyl)-2-oxo-2,3-dihydro-1H-imidazo [4,5-c]pyridin-1-yl)phenyl)acrylamide] | 1000 to 10000 |
| C=CC(=O)N1CC[C@@H](n2c(=O)n(-c3ccc(OCc4ccccn4)c(Cl)c3)c3cnccc32)C1 [Example 204, (R)-1-(1-acryloylpyrrolidin-3-yl)-3-(3-chloro-4-(pyridin-2-ylmethoxy)phenyl)-1H-imidazo[4,5-c]pyridin-2(3H)-one] | 100 to 1000 |
| CC#CC(=O)N1CC[C@@H](n2c(=O)n(-c3ccc(Oc4ccccc4)cc3)c3cnccc32)C1 [Example 34, (R)-1-(1-(but-2-ynoyl)pyrrolidin-3-yl)-3-(4-phenoxyphenyl)-1H-imidazo [4,5-c]pyridin-2(3H)-one] | ≥ 10000 |
| C=CC(=O)N1CCC[C@@H](n2c(=O)n(-c3ccc(Oc4ccccc4)cc3)c3ccncc32)C1 [Example 122, (R)-3-(1-acryloylpiperidin-3-yl)-1-(4-phenoxyphenyl)-1H-imidazo[4,5-c]pyridin-2(3H)-one] | 1000 to 10000 |
| C=CC(=O)Nc1cccc(-n2c(=O)n(-c3ccc(Oc4ccc(OC)c(C)c4)cc3)c3cnccc32)c1 [Example 163, N-(3-(3-(4-(4-methoxy-3-methylphenoxy)phenyl)-2-oxo-2,3-dihydro-1H-imidazo[4,5-c]pyridin-1-yl)phenyl)acrylamide] | 100 to 1000 |
| O=C(/C=C/c1ccccc1)N1CC[C@@H](n2c(=O)n(-c3ccc(Oc4ccccc4)c(Cl)c3)c3cnccc32)C1 [Example 22, (R,E)-3-(3-chloro-4-phenoxyphenyl)-1-(1-cinnamoylpyrrolidin-3-yl)-1H-imidazo[4,5-c]pyridin-2(3H)-one] | ≥ 10000 |
| C=CC(=O)Nc1cccc(-n2c(=O)n(-c3ccc(NC(=O)c4cccc(F)c4)cc3)c3cnccc32)c1 [Example 265, N-(4-(1-(3-acrylamidophenyl)-2-oxo-1H-imidazo[4,5-c]pyridin-3(2H)-yl)phenyl)-3-fluorobenzamide] | 100 to 1000 |
| C=CC(=O)N1CC[C@@H](n2c(=O)n(-c3ccc(OCc4ccc(F)cc4F)cc3)c3cnccc32)C1 [Example 199, (R)-1-(1-acryloylpyrrolidin-3-yl)-3-(4-((2,4-difluorobenzyl)oxy)phenyl)-1H-imidazo[4,5-c]pyridin-2(3H)-one] | 100 to 1000 |
| C=CC(=O)N1CC[C@@H](n2c(=O)n(-c3ccc(OCc4ccccc4F)c(Cl)c3)c3cnccc32)C1 [Example 236, (R)-1-(1-acryloylpyrrolidin-3-yl)-3-(3-chloro-4-((2-fluorobenzyl)oxy)phenyl)-1,3-dihydro-2H-imidazo[4,5-c]pyridin-2-one] | 100 to 1000 |
| O=C(O)C(=O)N1CCCC(n2c(=O)n(-c3ccc(Oc4ccccc4)cc3)c3cnccc32)C1 (stereo not drawn) [Example 192, 2-oxo-2-(3-(2-oxo-3-(4-phenoxyphenyl)-2,3-dihydro-1H-imidazo[4,5-c]pyridin-1-yl)piperidin-1-yl)acetic acid] | 1000 to 10000 |

Second part, the compound after the results:

| IC50 [nM] | SMILES |
| --- | --- |
| 10 to 100 | C=CC(=O)N1CCC[C@@H](n2c(=O)n(-c3ccc(Oc4cccc(C)c4C)cc3)c3cnccc32)C1 [Example 58, (R)-1-(1-acryloylpiperidin-3-yl)-3-(4-(2,3-dimethylphenoxy)phenyl)-1H-imidazo[4,5-c]pyridin-2(3H)-one] |
| 10 to 100 | C=CC(=O)N1CCC[C@@H](n2c(=O)n(-c3ccc(Oc4cccc(C)c4)c(Cl)c3)c3cnccc32)C1 [Example 108, (R)-1-(1-acryloylpiperidin-3-yl)-3-(3-chloro-4-(m-tolyloxy)phenyl)-1H-imidazo[4,5-c]pyridin-2(3H)-one] |
| 100 to 1000 | C=CC(=O)Nc1cccc(-n2c(=O)n(-c3ccc(OCc4cccc(C(F)(F)F)c4)c(Cl)c3)c3cnccc32)c1 [Example 243, N-(3-(3-(3-chloro-4-((3-(trifluoromethyl)benzyl)oxy)phenyl)-2-oxo-2,3-dihydro-1H-imidazo[4,5-c]pyridin-1-yl)phenyl)acrylamide] |
| 10 to 100 | C=CC(=O)Nc1cccc(-n2c(=O)n(-c3cccc(Oc4cccc(F)c4)c3)c3cnccc32)c1 [Example 75, N-(3-(3-(3-(3-fluorophenoxy)phenyl)-2-oxo-2,3-dihydro-1H-imidazo[4,5-c]pyridin-1-yl)phenyl)acrylamide] |
| 100 to 1000 | C=CC(=O)N1CCC[C@@H](n2c(=O)n(-c3ccc(Oc4cccc(Cl)c4OC)cc3)c3cnccc32)C1 [Example 64, (R)-1-(1-acryloylpiperidin-3-yl)-3-(4-(3-chloro-2-methoxyphenoxy)phenyl)-1H-imidazo[4,5-c]pyridin-2(3H)-one] |
| 10 to 100 | C=CC(=O)N1CC[C@@H](n2c(=O)n(-c3ccc(Oc4cccc(Cl)c4)c(F)c3)c3cnccc32)C1 [Example 149, (R)-1-(1-acryloylpyrrolidin-3-yl)-3-(4-(3-chlorophenoxy)-3-fluorophenyl)-1H-imidazo[4,5-c]pyridin-2(3H)-one] |
| 10 to 100 | C=CC(=O)N1CCCC1Cn1c(=O)n(-c2ccc(Oc3ccccc3)cc2)c2cnccc21 (stereo not drawn) [Example 21, 1-((1-acryloylpyrrolidin-2-yl)methyl)-3-(4-phenoxyphenyl)-1H-imidazo[4,5-c]pyridin-2(3H)-one] |
| 10 to 100 | C=CC(=O)N1CC[C@@H](n2c(=O)n(-c3ccc(Oc4cc(F)cc(F)c4)c(Cl)c3)c3cnccc32)C1 [Example 39, (R)-1-(1-acryloylpyrrolidin-3-yl)-3-(3-chloro-4-(3,5-difluorophenoxy)phenyl)-1H-imidazo[4,5-c]pyridin-2(3H)-one] |
| 100 to 1000 | C=CC(=O)N1CCC[C@@H]1Cn1c(=O)n(-c2ccc(Oc3cccc(OC)c3F)cc2)c2cncc(C)c21 [Example 170, (R)-1-((1-acryloylpyrrolidin-2-yl)methyl)-3-(4-(2-fluoro-3-methoxyphenoxy)phenyl)-7-methyl-1H-imidazo[4,5-c]pyridin-2(3H)-one] |
| 10 to 100 | C=CC(=O)Nc1cccc(-n2c(=O)n(-c3ccc(Oc4cccc(OC)c4)c(C)c3)c3cnccc32)c1 [Example 62, N-(3-(3-(4-(3-methoxyphenoxy)-3-methylphenyl)-2-oxo-2,3-dihydro-1H-imidazo[4,5-c]pyridin-1-yl)phenyl)acrylamide] |
| 10 to 100 | C=CC(=O)N1CCC[C@@H](n2c(=O)n(-c3ccc(Oc4cccc(Cl)c4Cl)cc3)c3cnccc32)C1 [Example 100, (R)-1-(1-acryloylpiperidin-3-yl)-3-(4-(2,3-dichlorophenoxy)phenyl)-1,3-dihydro-2H-imidazo[4,5-c]pyridin-2-one] |
| 10 to 100 | C=CC(=O)N1CC[C@@H](n2c(=O)n(-c3cccc(Oc4ccc(C)cc4)c3)c3cnccc32)C1 [Example 16, (R)-1-(1-acryloylpyrrolidin-3-yl)-3-(3-(p-tolyloxy)phenyl)-1H-imidazo[4,5-c]pyridin-2(3H)-one] |
| 10 to 100 | C=CC(=O)Nc1cccc(-n2c(=O)n(-c3ccc(Oc4cccc(OCC)c4)cc3)c3cnccc32)c1 [Example 113, N-(3-(3-(4-(3-ethoxyphenoxy)phenyl)-2-oxo-2,3-dihydro-1H-imidazo[4,5-c]pyridin-1-yl)phenyl)acrylamide] |
| 10 to 100 | C=CC(=O)Nc1cccc(-n2c(=O)n(-c3ccc(Oc4ccc(OC)c(OC)c4)cc3)c3cnccc32)c1 [Example 131, N-(3-(3-(4-(3,4-dimethoxyphenoxy)phenyl)-2-oxo-2,3-dihydro-1H-imidazo[4,5-c]pyridin-1-yl)phenyl)acrylamide] |

Reference: patent US10358446B2, “Bruton's tyrosine kinase inhibitors” (Zibo Biopolar Changsheng Pharmaceutical Co. Ltd., priority 2015, dated 2019)
